Test results as given in patent publication US20260200885A1, “BENZOPYRONE COMPOUNDS AS WELL AS PREPARATION METHOD THEREFOR AND USE THEREOF” (CHENGDU DI’AO JIUHONG PHARMACEUTICAL FACTORY, priority 2022, published 2026).
pIC50: −log10 of the molar value. Where two headings read alike, the source gives them in different places.

Legend:
A2780 cells = experiment: Determination of cell activity (CellTiter-Glo Luminescent Cell Viability Assay); type: cell-based; conditions: Homo sapiens
Experimental: To examine the effect of compounds on cell viability, ATP was directly quantified using the CellTiter-Glo Luminescent Cell Viability Assay (Promega) to determine the number of viable cells.
Cell density was selected based on optimal signal intensity and growth curve for the inoculation of A2780 cells. The cells were incubated at 37° C. and 5% C02 overnight. Cells were treated with blank group, DMSO group and compound group, respectively, at 37° C. and 5% C02 for 7 days. The prepared solutions were added to cell wells according to the instructions of CellTiter-Glo (Promega), and shaken at a speed of 400 g for 2 min. Then, the solutions were centrifuged at 1000 g for 2 min and incubated at rest for 30 min to ensure a complete reaction. […] readings were taken using a multi-label microplate reader (Perkin Elmer) to calculate IC50 values.

[1] = Pharmacokinetic assay in CD1 mice; type: in vivo; conditions: for half-life: intragastric administration 5 mg/kg, Table I-3, read-out: T1/2 (h) for oral administration (converted)
Experimental: pharmacokinetic assay of compounds was carried out in CD1 mice aged 6-8 weeks with IMT1B as a positive control. The compounds and the positive control were dissolved in 30% aqueous hydroxypropyl-β-cyclodextrin solution containing 25% PEG400 and administered via intravenous injection (1 mg/kg) or intragastric administration (5 mg/kg). Blood samples were collected at 0.033, 0.083, 0.25, 0.5, 1, 2, 4, 8, 24 h and 0.083, 0.25, 0.5, 1, 2, 4, 8, 24 h respectively after administration.
The concentration of the compounds in plasma samples was analyzed using the LC-MS/MS method. Pharmacokinetic calculations were performed using WinNonlin (Phoenix™, version 8.3) or other similar software. The following pharmacokinetic parameters were calculated from the plasma concentration vs. time data: for intravenous administration: T1/2, C0, AUClast, AUCinf, MRTinf, Cl, Vss, regression coefficient, etc.; for oral administration: T1/2, Cmax, Tmax, AUClast, AUCinf, bioavailability, etc. The above parameter data were statistically calculated and described using descriptive statistics such as mean value and standard deviation.

[2] = 168 h, A2780 cells, 7 days treatment, CellTiter-Glo, read-out: IC50
[3] = mouse, plasma, po, 5 mg/kg, main pharmacokinetic parameters, Table I-4

| SMILES | pIC50 (A2780 cells; [2]) | also measured |
| --- | --- | --- |
| C[C@@H](Oc1ccc2c(-c3ccc(F)cc3Cl)cc(=O)oc2c1)C(=O)c1ccccc1C(=O)O [Compound A1-1-1] | 6.00 to 7.00 |  |
| C[C@@H](Oc1ccc2c(-c3ccc(F)cc3Cl)cc(=O)oc2c1)C(=O)c1ccc(C(=O)O)cc1 [Compound A1-1-9] |  | half-life ([1]; mouse, plasma, po): 3.89 h |
| C[C@@H](Oc1ccc2c(-c3ccc(F)cc3Cl)cc(=O)oc2c1)C(=O)c1ccnc(C(=O)O)c1 [Compound A1-4-5] |  | half-life ([1]; mouse, plasma, po): 9.73 h |
| C[C@H](Oc1ccc2c(-c3ccc(F)cc3Cl)cc(=O)oc2c1)C(=O)c1ccccc1C(=O)O [Compound A2-1-1] | 6.00 to 7.00 | half-life ([1]; mouse, plasma, po): 3.54 h |
| C[C@H](Oc1ccc2c(-c3ccc(F)cc3Cl)cc(=O)oc2c1)C(=O)c1cccc(C(=O)O)c1 [Compound A2-1-5] | 7.00 to 7.70 | F ([1]; bioavailability, Table I-4): 137.555%; maximum plasma concentration Cmax compared with IMT1B ([1]; comparison in words): significantly superior to IMT1B; plasma exposure AUC compared with IMT1B ([1]; comparison in words): significantly superior to IMT1B; T1/2 ([1]; main pharmacokinetic parameters, Table I-4): 3.985 h; AUC(0-inf) [1, 3]: 9870 ng·h/mL; AUC(0-t) [1, 3]: 9740 ng·h/mL; Cmax ([1]; mouse, plasma, po, 5 mg/kg, main pharmacokinetic parameters, Table I-4, read-out: Cmax): 1060 ng/mL; half-life ([1]; mouse, plasma, po): 3.98 h |
| CC(Oc1ccc2c(-c3ccccc3F)cc(=O)oc2c1)C(=O)c1cccc(C(=O)O)c1 (stereo not shown) [Compound A-1-2-1-1] | 6.00 to 7.00 |  |
| CC(Oc1ccc2c(-c3ccccc3Cl)cc(=O)oc2c1)C(=O)c1cccc(C(=O)O)c1 (stereo not shown) [Compound A-1-2-1-2] | 7.00 to 7.70 |  |
| CC(Oc1ccc2c(-c3ccccc3Br)cc(=O)oc2c1)C(=O)c1cccc(C(=O)O)c1 (stereo not shown) [Compound A-1-2-1-3] | 7.00 to 7.70 |  |
| COc1ccccc1-c1cc(=O)oc2cc(OC(C)C(=O)c3cccc(C(=O)O)c3)ccc12 (stereo not shown) [Compound A-1-2-1-8] | 6.00 to 7.00 |  |
| CNC(=O)c1cccc(C(=O)C(C)Oc2ccc3c(-c4ccc(F)cc4Cl)cc(=O)oc3c2)c1 (stereo not shown) [Compound A-1-2-1-35] | 7.00 to 7.70 |  |
| CC(Oc1ccc2c(-c3ccc(F)cc3Cl)cc(=O)oc2c1)C(=O)c1cccc(C(N)=O)c1 (stereo not shown) [Compound A-1-2-1-36] | 7.00 to 7.70 |  |
| CC(Oc1ccc2c(-c3ccc(F)cc3Cl)cc(=O)oc2c1)C(=O)c1cccc(S(N)(=O)=O)c1 (stereo not shown) [Compound A-1-2-1-40] | 7.00 to 7.70 | half-life ([1]; mouse, plasma, po): 3.57 h |
| CC(Oc1ccc2c(-c3ccc(F)cc3Cl)cc(=O)oc2c1)C(=O)c1ccccc1 (stereo not shown) [Compound A-1-2-1-70] | 7.00 to 7.70 |  |
| CC(Oc1ccc2c(-c3ccc(F)cc3Cl)cc(=O)oc2c1)C(=O)c1cccc(F)c1 (stereo not shown) [Compound A-1-2-1-71] | 7.00 to 7.70 |  |
| CC(Oc1ccc2c(-c3ccc(F)cc3Cl)cc(=O)oc2c1)C(=O)c1cccc(Cl)c1 (stereo not shown) [Compound A-1-2-1-72] | 6.00 to 7.00 |  |
| CC(Oc1ccc2c(-c3ccc(F)cc3Cl)cc(=O)oc2c1)C(=O)c1cccc(Br)c1 (stereo not shown) [Compound A-1-2-1-73] | 6.00 to 7.00 |  |
| Cc1cccc(C(=O)C(C)Oc2ccc3c(-c4ccc(F)cc4Cl)cc(=O)oc3c2)c1 (stereo not shown) [Compound A-1-2-1-75] | 7.00 to 7.70 |  |
| COc1cccc(C(=O)C(C)Oc2ccc3c(-c4ccc(F)cc4Cl)cc(=O)oc3c2)c1 (stereo not shown) [Compound A-1-2-1-76] | 6.00 to 7.00 |  |
| CC(Oc1ccc2c(-c3ccc(F)cc3Cl)cc(=O)oc2c1)C(=O)c1ccc(N)cc1 (stereo not shown) [Compound A-1-2-1-78] | > 7.70 |  |
| CNc1ccc(C(=O)C(C)Oc2ccc3c(-c4ccc(F)cc4Cl)cc(=O)oc3c2)cc1 (stereo not shown) [Compound A-1-2-1-79] | 7.00 to 7.70 |  |
| CC(Oc1ccc2c(-c3ccc(F)cc3Cl)cc(=O)oc2c1)C(=O)c1ccc(N(C)C)cc1 (stereo not shown) [Compound A-1-2-1-80] | 7.00 to 7.70 |  |
| CC(Oc1ccc2c(-c3ccc(F)cc3Cl)cc(=O)oc2c1)C(=O)c1ccc(O)cc1 (stereo not shown) [Compound A-1-2-1-82] | > 7.70 |  |
| CC(=O)Oc1ccc(C(=O)C(C)Oc2ccc3c(-c4ccc(F)cc4Cl)cc(=O)oc3c2)cc1 (stereo not shown) [Compound A-1-2-1-83] | > 7.70 |  |
| CC(=O)Nc1ccc(C(=O)C(C)Oc2ccc3c(-c4ccc(F)cc4Cl)cc(=O)oc3c2)cc1 (stereo not shown) [Compound A-1-2-1-84] | > 7.70 |  |
| CC(Oc1ccc2c(-c3ccc(F)cc3Cl)cc(=O)oc2c1)C(=O)c1cccc([N+](=O)[O-])c1 (stereo not shown) [Compound A-1-2-1-89] | 6.00 to 7.00 |  |
| CC(Oc1ccc2c(-c3ccc(F)cc3Cl)cc(=O)oc2c1)C(=O)c1cccc(C#N)c1 (stereo not shown) [Compound A-1-2-1-90] | 7.00 to 7.70 |  |

| SMILES | pIC50 (A2780 cells; [2]) | also measured |
| --- | --- | --- |
| Cc1ccccc1-c1cc(=O)oc2cc(OC(C)C(=O)c3cccc(C(=O)O)c3)ccc12 (stereo not shown) [Compound A-1-2-1-98] | > 7.70 |  |
| CC(Oc1ccc2c(-c3ccccc3)cc(=O)oc2c1)C(=O)c1cccc(C(=O)O)c1 (stereo not shown) [Compound A-1-2-1-99] | 6.00 to 7.00 |  |
| Cc1cccc(-c2cc(=O)oc3cc(OC(C)C(=O)c4cccc(C(=O)O)c4)ccc23)c1 (stereo not shown) [Compound A-1-2-1-100] | 6.00 to 7.00 |  |
| CCc1ccccc1-c1cc(=O)oc2cc(OC(C)C(=O)c3cccc(C(=O)O)c3)ccc12 (stereo not shown) [Compound A-1-2-1-101] | 6.00 to 7.00 |  |
| C=Cc1ccccc1-c1cc(=O)oc2cc(OC(C)C(=O)c3cccc(C(=O)O)c3)ccc12 (stereo not shown) [Compound A-1-2-1-103] | 6.00 to 7.00 |  |
| CC(=O)NCCc1ccc(C(=O)C(C)Oc2ccc3c(-c4ccc(F)cc4Cl)cc(=O)oc3c2)cc1 (stereo not shown) [Compound A-1-2-1-104] | > 7.70 |  |
| CC(Oc1ccc2cc(-c3ccccc3)c(=O)oc2c1)C(=O)N1CCCC(C#N)C1 (stereo not shown) [Compound A-1-2-2-2] | < 6.00 |  |
| CC(Oc1ccc2c(C3CCCCC3)cc(=O)oc2c1)C(=O)c1cccc(C(=O)O)c1 (stereo not shown) [Compound A-1-2-6-2] | 6.00 to 7.00 |  |
| CC(Oc1ccc2c(-c3cccnc3)cc(=O)oc2c1)C(=O)N1CCCC(C#N)C1 (stereo not shown) [Compound A-1-2-6-23] | < 6.00 |  |
| CC(Oc1ccc2c(-c3ccncc3)cc(=O)oc2c1)C(=O)N1CCCC(C#N)C1 (stereo not shown) [Compound A-1-2-6-24] | < 6.00 |  |
| CC(Oc1ccc2c(-c3ccc(F)cc3Cl)cc(=O)oc2c1)C(=O)C1CCN(C)CC1 (stereo not shown) [Compound A-1-7-1-1] | 6.00 to 7.00 |  |
| CC(Oc1ccc2c(-c3ccc(F)cc3Cl)cc(=O)oc2c1)C(=O)C1CCN(C(=O)C(Cl)Cl)CC1 (stereo not shown) [Compound A-1-7-1-3] | 7.00 to 7.70 |  |
| CC(Oc1ccc2c(-c3ccc(F)cc3Cl)cc(=O)oc2c1)C(=O)C1CCN(CCO)CC1 (stereo not shown) [Compound A-1-7-1-4] | 6.00 to 7.00 |  |
| CC(Oc1ccc2c(-c3ccc(F)cc3Cl)cc(=O)oc2c1)C(=O)[C@H]1CCCNC1 (stereo partly shown) [Compound A-1-8-1-1] | 6.00 to 7.00 |  |
| CC(Oc1ccc2c(-c3ccc(F)cc3Cl)cc(=O)oc2c1)C(=O)[C@@H]1CCCNC1 (stereo partly shown) [Compound A-1-8-1-2] | 6.00 to 7.00 |  |
| CC(Oc1ccc2c(-c3ccc(F)cc3Cl)cc(=O)oc2c1)C(=O)c1cc[nH]c1 (stereo not shown) [Compound A-1-10-1-5] | > 7.70 |  |
| CC(Oc1ccc2c(-c3ccc(F)cc3Cl)cc(=O)oc2c1)C(=O)c1ccoc1 (stereo not shown) [Compound A-1-10-1-6] | 7.00 to 7.70 |  |
| CC(Oc1ccc2c(-c3ccc(F)cc3Cl)cc(=O)oc2c1)C(=O)c1ccsc1 (stereo not shown) [Compound A-1-10-1-7] | 7.00 to 7.70 |  |
| CC(Oc1ccc2c(-c3ccc(F)cc3Cl)cc(=O)oc2c1)C(=O)C1CCNC1 (stereo not shown) [Compound A-1-10-1-35] | 6.00 to 7.00 |  |
| CC(Oc1ccc2c(-c3ccc(F)cc3Cl)cc(=O)oc2c1)C(=O)C1CCOCC1 (stereo not shown) [Compound A-1-10-1-39] | > 7.70 |  |
| CC(Oc1ccc2c(-c3ccc(F)cc3Cl)cc(=O)oc2c1)C(=O)c1ccc2[nH]ccc2c1 (stereo not shown) [Compound A-1-11-1-1] | 7.00 to 7.70 |  |
| CC(Oc1ccc2c(-c3ccc(F)cc3Cl)cc(=O)oc2c1)C(=O)c1ccc2c(c1)OCO2 (stereo not shown) [Compound A-1-11-1-10] | 6.00 to 7.00 |  |
| CC(Oc1ccc2c(-c3ccc(F)cc3Cl)cc(=O)oc2c1)C(=O)c1ccc2c(c1)OCCO2 (stereo not shown) [Compound A-1-11-1-13] | 6.00 to 7.00 |  |
| CC(Oc1ccc2c(-c3ccc(F)cc3Cl)cc(=O)oc2c1)C(=O)C12CC3CC(CC(C3)C1)C2 (stereo not shown) [Compound A-1-12-1-27] | 6.00 to 7.00 |  |
| CC(Oc1ccc2c(-c3ccc(F)cc3Cl)cc(=O)oc2c1)C(=O)C1CCN(CC(=O)O)CC1 (stereo not drawn) [α-12] |  | pIC50 (A2780 cells; A2780, 168 h): 6.00 to 7.00 |
